Data reported in paper PMC3598812, “Evaluation of Anti-Hyperalgesic and Analgesic Effects of Two Benzodiazepines in Human Experimental Pain: A Randomized Placebo-Controlled Study” (PLoS ONE, 2013).
“And” between values parts separate entries of the source, which are not always exact repeats. Equal entries are not always repeated. “Also recorded” adds a separate entry of the source.

Assays:
healthy male volunteers [1] = assay: Pressure pain detection and tolerance thresholds (pressure algometer, 2nd toe); format: in vivo, human; details: mean (SD)
Experimental: Pain detection and tolerance thresholds were measured with an electronic pressure algometer (Somedic, Hörby, Sweden) applied at the center of the pulp of the 2nd toe. […] The pressure was increased from 0 at a rate of 30 kPa/s to a maximum pressure of 1200 kPa. Pain detection threshold was defined as the point at which the pressure sensation turned to pain. Pain tolerance threshold was defined as the point at which the subject felt the pain as intolerable. If the threshold was not reached at 1200 kPa, this value was considered as threshold. Three assessments were made and the mean of these 3 measurements were used for the data analysis.

healthy male volunteers [2] = assay: Psychomotor performance, digit symbol substitution test (DSST); details: for DSST-score: single oral dose (clobazam 20 mg, clonazepam 1 mg, tolterodine 1 mg), mean (SD)
Experimental: The psychomotor performance was assessed by the digit symbol substitution test (DSST), a subscale of the Wechsler Adult Intelligence Scale. The DSST evaluates the ability to concentrate and modifications in processing information [23]. It is a two-minute paper-and-pencil test. The subject was asked to replace digits with corresponding symbols according to a code given on the same sheet of paper. The score consists in the total number and the correct number of symbols drawn.
Pressure pain, conditioned pain modulation (CPM), intramuscular electrical pain tests, cuff algometry and DSST were performed 120 min after drug intake.
After 15 min, the whole battery of tests was performed.

healthy male volunteers [3] = assay: Intramuscular repeated (20 stimuli) electrical stimulation, VAS; format: in vivo, human; set-up: AUC of VAS during 20 intramuscular electrical stimuli: unit not given beside the values; details: for Maximal VAS during 20 intramuscular electrical stimuli: VAS 0-10; for Maximal VAS during 20 intramuscular electrical stimuli / AUC of VAS during 20 intramuscular electrical stimuli: mean (SD)
Experimental: (§1) The stimulus burst used for single stimulus was repeated for a train of 20 pulses at 2 Hz, at an intensity corresponding to the temporal summation threshold. During this 10 s stimulation, pain intensity was continuously rated by the subject with an electronic VAS, and the area under the curve (AUC) was computed. Additionally, the maximal VAS during stimulation was recorded.
(§2) A needle was placed in the tibialis anterior muscle, 14 cm distal from the caudal end of the patella and 20 mm in depth. The same single and repeated stimulation patterns and the same procedure described for cutaneous stimulation were used.

healthy male volunteers [4] = assay: Cuff algometry (tourniquet cuff on the leg, VAS-time AUC); format: in vivo, human; set-up: AUC of VAS during cuff algometry: unit not given beside the values; details: for AUC of VAS during cuff algometry: mean (SD)
Excerpt: A tourniquet cuff was applied to the middle of the leg, at the level of the heads of the gastrocnemius and soleus muscle. The cuff was applied at the side contralateral to the side of electrical stimulation in order not to interfere with the positioning of the intramuscular electrodes. During stimulation, the volunteer rated the pain intensity on an electronic VAS scale. The cuff was inflated with compressed air until VAS 6 was reached. The maximum allowed inflating pressure was 200 kPa. The pressure was maintained for 10 min or until the subjects rated the pain as intolerable. The area under the curve VAS-time was computed. For those subjects who felt intolerable pain before 10 min, the time when the cuff was deflated was recorded and VAS 10 was extrapolated until 10 min. Additionally, the maximal VAS during inflation was recorded.

healthy male volunteers [5] = assay: Cutaneous repeated (5 stimuli) electrical stimulation, temporal summation threshold; format: in vivo, human; details: mean (SD)
Excerpt: The stimulus burst used for single stimulus was repeated 5 times at 2 Hz, at constant intensity. The current intensity of the 5 stimuli was increased from 1 mA in steps of 0.5 mA until the subjects felt pain during the last 2–3 of the 5 stimuli (indicating temporal summation).
(§3) Three assessments were made and the mean of these 3 measurements was used for the data analysis.

healthy male volunteers [6] = assay: Conditioned pain modulation (cold pressor test and pressure algometry); format: in vivo, human; details: difference in pressure pain detection threshold after vs before cold pressor test, mean (SD)
Excerpt: This method explores the endogenous modulation of nociceptive input. Under normal conditions, pain after application of a “test” nociceptive stimulus is attenuated by the application of an additional conditioning noxious stimulus to a remote body region, reflecting diffuse endogenous inhibition, [20]. In the present study, pressure pain detection threshold and cold pressure test (see below) were used as test and conditioning stimuli, respectively. An increase in pressure pain detection threshold immediately after cold pressure test was an indication of CPM.
The subjects placed their hand into a container filled with ice water. In order to maximize heterotopic stimulation, the hand contralateral to the side of pressure stimulation was used. The water was regularly mixed to maintain the temperature near to 0°C. The temperature of the water near the hand was monitored by a thermometer with a digital display (±0.1°C). The subjects were asked to keep the hand in the water until they felt an intolerable sensation of pain and were forced to remove the hand from the container, with a maximum time of 2 min.
Pressure pain detection threshold was measured again at the same time as the subject was withdrawing the hand from the water (one single measurement). CPM was measured as the difference in pressure pain detection threshold between measurements after and before the cold pressure test.

healthy male volunteers [7] = assay: Cutaneous repeated (20 stimuli) electrical stimulation, VAS; format: in vivo, human; set-up: AUC of VAS during 20 cutaneous electrical stimuli: unit not given beside the values; details: mean (SD); for Maximal VAS during 20 cutaneous electrical stimuli: VAS 0-10
Experimental: as §1

healthy male volunteers [8] = assay: Cutaneous single electrical stimulation pain threshold; format: in vivo, human; details: mean (SD)
Experimental: (§4) Electrical stimulation was performed through electrodes placed distal to the lateral malleolus. A 25 ms, train-of-five, 1 ms, square-wave impulse (perceived as one stimulus), was delivered by a computer-controlled constant current stimulator (Digitimer DS7A, Neurospec, Letchworth Garden City, UK). The current intensity was increased from 1 mA in steps of 0.5 mA until a pain sensation was evoked.
as §3

healthy male volunteers [9] = assay: Intramuscular single electrical stimulation pain threshold (tibialis anterior); format: in vivo, human; details: for Pain threshold after single intramuscular electrical stimulation: mean (SD)
Experimental: as §4, §2

[10] = baseline before medication, per drug session
[11] = single oral dose (clobazam 20 mg, clonazepam 1 mg, tolterodine 1 mg), 120 min after medication
[12] = single oral dose (clobazam 20 mg, clonazepam 1 mg, tolterodine 1 mg), after flumazenil 0.2 mg iv
[13] = subgroup analysis (n = 8), pairwise multiple comparisons
[14] = single oral dose (clobazam 20 mg, clonazepam 1 mg, tolterodine 1 mg), 30 min after medication
[15] = single oral dose (clobazam 20 mg, clonazepam 1 mg, tolterodine 1 mg), 60 min after medication
[16] = single oral dose (clobazam 20 mg, clonazepam 1 mg, tolterodine 1 mg), 90 min after medication

**Q.** Which results are given for `O=C1CN=C(c2ccccc2Cl)c2cc([N+](=O)[O-])ccc2N1` [Clonazepam]?
**A.** Pressure pain detection threshold (healthy male volunteers [1]; [10]): 416 (80) kPa; Pressure pain tolerance threshold (healthy male volunteers [1]; [10]): 685 (172) kPa and 749 (242) kPa; Pressure pain detection threshold (healthy male volunteers [1]; [11]): 383 (100) kPa; Pressure pain tolerance threshold (healthy male volunteers [1]; [11]): 636 (147) kPa and 712 (262) kPa; Pressure pain detection threshold (healthy male volunteers [1]; [12]): 389 (112) kPa; Pressure pain tolerance threshold (healthy male volunteers [1]; [12]): 390.8 (199) kPa and 734.7 (279) kPa; DSST score compared with tolterodine at 120 min (healthy male volunteers [2]; main analysis, pairwise comparison within the time-points): significantly associated to a lower score; DSST-score (healthy male volunteers [2]; 120 min after drug administration): 69.3 (15.8); DSST-score (healthy male volunteers [2]; after flumazenil 0.2 mg iv): 79.1 (14.5); Psychomotor performance (DSST) at 120 minutes compared with the other two drugs (healthy male volunteers [2]; subgroup analysis (n = 8), pairwise multiple comparison): lower psychomotor performance; Change of DSST score after flumazenil injection (healthy male volunteers [2]; subgroup analysis (n = 8), within drug): significantly increased; Maximal VAS during 20 intramuscular electrical stimuli (healthy male volunteers [3]; [10]): 4.3 (1.4); Maximal VAS during 20 intramuscular electrical stimuli (healthy male volunteers [3]; [11]): 3.2 (2.4); Maximal VAS during 20 intramuscular electrical stimuli (healthy male volunteers [3]; [12]): 2.8 (2.0); AUC of VAS during 20 intramuscular electrical stimuli (healthy male volunteers [3]; [10]): 307 (138); AUC of VAS during 20 intramuscular electrical stimuli (healthy male volunteers [3]; [11]): 236 (204); AUC of VAS during 20 intramuscular electrical stimuli (healthy male volunteers [3]; [12]): 209 (178); Maximal VAS during 20 intramuscular electrical stimuli, comparison among drugs (healthy male volunteers [3]; subgroup analysis (n = 8), pairwise comparisons vs tolterodine and clobazam): lower values; also recorded: Significantly lower maximal VAS with clonazepam, compared with tolterodine and clobazam in the subgroup analysis; AUC of VAS during cuff algometry (healthy male volunteers [4]; [10]): 3420 (689); Cuff algometry, overview of peak value or subgroup analysis (healthy male volunteers [4]; overview table, compared to tolterodine): Time factor significant, favouring clobazam and clonazepam compared to tolterodine; AUC of VAS during cuff algometry (healthy male volunteers [4]; [11]): 3175 (644); AUC of VAS during cuff algometry (healthy male volunteers [4]; [12]): 3225 (671); AUC of VAS during cuff algometry compared with tolterodine at 120 min (healthy male volunteers [4]; [13]): significantly lower; Change of AUC of VAS during cuff algometry from baseline at 120 min and after flumazenil (healthy male volunteers [4]; [13]): significantly decreased; Pain threshold after 5 cutaneous electrical stimuli (healthy male volunteers [5]; [10]): 8.2 (3.1) mA; Pain threshold after 5 cutaneous electrical stimuli (healthy male volunteers [5]; [14]): 8.2 (3.0) mA; Pain threshold after 5 cutaneous electrical stimuli (healthy male volunteers [5]; [15]): 8.5 (2.9) mA; Pain threshold after 5 cutaneous electrical stimuli (healthy male volunteers [5]; [16]): 8.8 (3.2) mA; Pain threshold after 5 cutaneous electrical stimuli (healthy male volunteers [5]; [11]): 9.1 (3.1) mA; Pain threshold after 5 cutaneous electrical stimuli (healthy male volunteers [5]; [12]): 9.2 (3.3) mA; Conditioned pain modulation (healthy male volunteers [6]; [10]): 70 (113) kPa; Conditioned pain modulation (healthy male volunteers [6]; [11]): 85 (77) kPa; Conditioned pain modulation (healthy male volunteers [6]; [12]): 74 (86) kPa; Maximal VAS during 20 cutaneous electrical stimuli (healthy male volunteers [7]; [10]): 4.9 (1.6); Maximal VAS during 20 cutaneous electrical stimuli (healthy male volunteers [7]; [14]): 5.4 (2.0); Maximal VAS during 20 cutaneous electrical stimuli (healthy male volunteers [7]; [15]): 5.0 (2.3); Maximal VAS during 20 cutaneous electrical stimuli (healthy male volunteers [7]; [16]): 4.7 (2.1); Maximal VAS during 20 cutaneous electrical stimuli (healthy male volunteers [7]; [11]): 4.4 (1.6); Maximal VAS during 20 cutaneous electrical stimuli (healthy male volunteers [7]; [12]): 4.2 (1.6); AUC of VAS during 20 cutaneous electrical stimuli (healthy male volunteers [7]; [10]): 359 (144); AUC of VAS during 20 cutaneous electrical stimuli (healthy male volunteers [7]; [14]): 352 (131); AUC of VAS during 20 cutaneous electrical stimuli (healthy male volunteers [7]; [15]): 349 (185); AUC of VAS during 20 cutaneous electrical stimuli (healthy male volunteers [7]; [16]): 351 (141); AUC of VAS during 20 cutaneous electrical stimuli (healthy male volunteers [7]; [11]): 344 (148); AUC of VAS during 20 cutaneous electrical stimuli (healthy male volunteers [7]; [12]): 322 (137); Pain threshold after single cutaneous electrical stimulation (healthy male volunteers [8]; [10]): 9.7 (3.3) mA; Pain threshold after single cutaneous electrical stimulation (healthy male volunteers [8]; [14]): 9.8 (3.5) mA; Pain threshold after single cutaneous electrical stimulation (healthy male volunteers [8]; [15]): 10.3 (3.4) mA; Pain threshold after single cutaneous electrical stimulation (healthy male volunteers [8]; [16]): 10.6 (3.6) mA; Pain threshold after single cutaneous electrical stimulation (healthy male volunteers [8]; [11]): 11.0 (3.6) mA; Pain threshold after single cutaneous electrical stimulation (healthy male volunteers [8]; [12]): 11.2 (3.9) mA; Pain threshold after single intramuscular electrical stimulation (healthy male volunteers [9]; [10]): 1.8 (1.2) mA; Pain threshold after single intramuscular electrical stimulation (healthy male volunteers [9]; baseline before medication, per drug session, listed as clonazepam): 1.84 mA; Change in pain threshold after single intramuscular electrical stimulation from baseline to after flumazenil (healthy male volunteers [9]; main analysis, pairwise comparisons within each drug): Significant increase in pain thresholds only for clonazepam; Change in pain detection threshold from baseline to peak value, intramuscular single electrical stimulation (healthy male volunteers [9]; peak value analysis, pairwise comparisons within each drug): significantly increase; also recorded: Significant increase in pain thresholds only for clonazepam in the peak value analysis; Pain detection threshold, intramuscular single electrical stimulation (healthy male volunteers [9]; peak value analysis, peak value before flumazenil, mean): 11.0; Pain threshold after single intramuscular electrical stimulation (healthy male volunteers [9]; [11]): 3.0 (2.5) mA; Pain threshold after single intramuscular electrical stimulation (healthy male volunteers [9]; [12]): 4.1 (3.7) mA; Pain threshold after single intramuscular electrical stimulation (healthy male volunteers [9]; single oral dose (clobazam 20 mg, clonazepam 1 mg, tolterodine 1 mg), after flumazenil 0.2 mg iv, listed as clonazepam): 4.05 mA
